Source: patent publication US20070213354A1, “Compositions and Methods for the Treatment of Multiple Sclerosis” (AmpliMed Corporation, priority 2006, published 2007)

What was measured:
[1] = test system: L1210 resistant; details: murine leukemia L1210 resistant, P-glycoprotein producing; MTT, continuous exposure; cited from earlier work
[2] = test system: acute monophasic EAE; assay: Acute monophasic EAE, drug administration beginning with immunization; assay type: in vivo, C57/BL6 mice; details: for Day of Onset / Incidence / Mean Clinical Score: 30 day observation; for Max. Clinical Score: scale 0 to 5
From the text: (§1) An acute monophasic form of EAE, induced by the administration of MOG, mimics the progressive clinical patterns of MS seen in human patients and can provide an opportunity to investigate a therapy's ability to prevent progression to symptomatic disease, to prevent or reduce the disability that would otherwise be caused by disease progression, or to treat one or more clinical symptoms of MS. The induction of the acute monophasic form of EAE in C57/BL6 mice can be achieved as described in Gaupp et al., Am J Pathol. 162(1): 139-150 (2003). Similarly, a relapsing-remitting form of EAE, induced by the administration of PLP, mimics the more common relapsing-remitting form of MS seen in humans and can provide an opportunity to investigate potential therapies to reduce the frequency, severity, or duration of a disease relapse, to otherwise prevent disability caused by disease progression, or to relieve one or more clinical symptoms of MS in human patients. The induction of the relapsing-remitting form of EAE in SJL/J mice can be achieved as described in Fridkis-Hareli et al., J Clin Invest. 109(12): 1635-1643 (2002).
(§2) Acute monophasic EAE was induced in C57/BL6 mice by subcutaneous flank and tail base injections of 200 μg of MOG in complete Freund's adjuvent containing 500 μg of heat-inactivated mycobacterium tuberculosis on day 0, supplemented by intravenous injections of 200 ng of pertussis toxin on day 2.
With reference first to FIGS. 1-3, beginning on the day of immunization for acute monophasic EAE, nine groups of mice (each group containing 5 or 6 individuals) were treated with either ethonafide (AMP; a compound of Formula (II) wherein the dibenzisoquinoline ring structure is substituted at position 6 with —OCH2CH3) or mitoxantrone at a dose of 0.125 mg/kg, 0.25 mg/kg, or 0.5 mg/kg daily for seven days, or were left untreated to be used as a control at each respective dose level. Each drug was administered intraperitoneally in phosphate buffered saline (untreated mice received i.p. administrations of the PBS vehicle). The mice were observed daily for clinical signs of disease, and were scored (by multiple investigators) on an arbitrary scale from 0 to 5 in increments of 0.5 according to the following parameters: 0—no clinical signs of disease; 1—flaccid tail; 2—hind limb weakness or abnormal gait; 3—complete hind paralysis; 4—complete hind paralysis with forelimb weakness or paralysis; and 5-moribund or deceased. The incidence of disease in the immunized mice, the day of disease onset, the maximum clinical score, and the mean clinical score over a 30 day observation period were determined, and the results are shown in Table 2.

[3] = test system: acute monophasic EAE; assay: Acute monophasic EAE, drug administration beginning on day 11 post immunization; assay type: in vivo, C57/BL6 mice; details: for Mean Clinical Score / Day of Onset / Incidence: 32 day observation; for Mean Clinical Score: mice that had evidence of disease; for Max. Clinical Score: scale 0 to 5
From the text: as §1, §2
With reference now to FIG. 4, five groups of mice (each group containing 5 or 6 individuals), immunized for acute monophasic EAE as described hereinbefore, were treated with either ethonafide (AMP) or mitoxantrone at a dose of 0.5 mg/kg or 1.0 mg/kg beginning on day 11 following immunization, for seven days, or were left untreated to be used as a control. Each drug was administered intraperitoneally in phosphate buffered saline (untreated mice received i.p. administrations of the PBS vehicle). The mice were observed daily for clinical signs of disease and were scored as indicated hereinbefore on a clinical scale from 0 to 5. The incidence of disease in the immunized mice, the day of disease onset, the maximum clinical score, and the mean clinical score over a 32 day observation period were determined, and the results are shown in Table 3.

[4] = test system: L1210 sensitive; details: murine leukemia L1210 sensitive to standard cytotoxic agents; MTT, continuous exposure; cited from earlier work
[5] = test system: neonatal rat myocytes; details: 1 hour drug concentration that reduces ATP/protein ratio to 50% of untreated control myocytes; read-out: IC50 Cardiotox; cited from earlier work
[6] = 0.125 mg/kg i.p. daily for seven days from day of immunization
[7] = 0.25 mg/kg i.p. daily for seven days from day of immunization
[8] = 0.5 mg/kg i.p. daily for seven days from day of immunization
[9] = 0.5 mg/kg i.p. for seven days beginning on day 11 following immunization
[10] = 1.0 mg/kg i.p. for seven days beginning on day 11 following immunization

Q: Which results are given for CCOc1ccc2c3c(c4ccccc4cc13)C(=O)N(CCN(C)C)C2=O [*6-OC2H5]?
A: IC50 [1]: 7 nM; Day of Onset [2, 6]: 11.5 ± 0.88; Incidence [2, 6]: 100%; Mean Clinical Score ([2]; 0.125 mg/kg i.p. daily for seven days from day of immunization, mice that had evidence of disease): 1.98 ± 0.48; Max. Clinical Score [2, 6]: 3.5 ± 0.22; Day of Onset [2, 7]: 17.8 ± 3.4; Incidence [2, 7]: 100%; Mean Clinical Score ([2]; 0.25 mg/kg i.p. daily for seven days from day of immunization, mice that had evidence of disease): 0.88 ± 0.38; Max. Clinical Score [2, 7]: 1.8 ± 1.16; Incidence [2, 8]: 0%; Mean Clinical Score [2, 8]: 0; Max. Clinical Score [2, 8]: 0; effect in delaying or preventing the onset of clinically symptomatic progressive disease and the disability caused thereby ([2]; 0.125, 0.25, 0.5 mg/kg from day of immunization, FIGS. 1-3, Table 2): dose dependent effect; Mean Clinical Score ([3]; 0.5 mg/kg i.p. for seven days beginning on day 11): 1.86 ± 0.35; Day of Onset [3, 9]: 11.8 ± 0.72; Incidence [3, 9]: 100%; Max. Clinical Score [3, 9]: 3.9 ± 0.26; Mean Clinical Score ([3]; 1.0 mg/kg i.p. for seven days beginning on day 11): 1.17 ± 0.24; Day of Onset [3, 10]: 12.3 ± 0.55; Incidence [3, 10]: 60%; Max. Clinical Score [3, 10]: 3.7 ± 0.22; effect in the treatment of clinical symptoms induced in the EAE mouse model ([3]; 0.5 and 1.0 mg/kg beginning on day 11, FIG. 4, Table 3): dose dependent effect; IC50 [4]: 8 nM; IC50 [5]: 1780 nM

Q: For COc1ccc2c3c4c(cccc4cc2c1)C(=O)N(CCN(C)C)C3=O [*9-OCH3], which IC50 [1] is on record?
A: 54 nM

Q: And the IC50 [4]?
A: 54 nM

Q: And the IC50 [5]?
A: < 2600 nM

Q: For CN(C)CCN1C(=O)c2cccc3cc4cc(O)ccc4c(c23)C1=O [*9-OH], which IC50 [1] is on record?
A: 7 nM

Q: What about the IC50 [4] of the same compound?
A: 5 nM

Q: And the IC50 [5]?
A: 404 nM

Q: What does the source list for Cc1ccc2cc3cccc4c3c(c2c1)C(=O)N(CCN(C)C)C4=O [*10-CH3]?
A: IC50 [1]: 54 nM; IC50 [4]: 41 nM; IC50 [5]: 1000 nM

Q: Which IC50 [1] does the source give for CN(C)CCN1C(=O)c2cccc3cc4ccc(C#N)cc4c(c23)C1=O [*10-CN] here?
A: 13 nM

Q: What about the IC50 [4] of the same compound?
A: 15 nM

Q: And the IC50 [5]?
A: 105 nM

Q: Which IC50 [1] does the source give for CN(C)CCN1C(=O)c2cccc3cc4ccc(Cl)cc4c(c23)C1=O [*10-Cl] here?
A: 8 nM

Q: What about the IC50 [4] of the same compound?
A: 5 nM

Q: What about the IC50 [5] of the same compound?
A: 771 nM

Q: With CN(C)CCN1C(=O)c2cccc3cc4ccc(I)cc4c(c23)C1=O [*10-I] as the compound, how does the IC50 [1] read?
A: 52 nM

Q: And the IC50 [4]?
A: 312 nM

Q: What about the IC50 [5] of the same compound?
A: 4790 nM

Q: With CN(C)CCN1C(=O)c2cccc3cc4ccc(N)cc4c(c23)C1=O [*10-NH2] as the compound, how does the IC50 [1] read?
A: 3 nM

Q: And the IC50 [4]?
A: 3 nM

Q: What about the IC50 [5] of the same compound?
A: 943 nM

Q: With CN(C)CCN1C(=O)c2cccc3cc4ccc(NC(=O)C(C)(C)C)cc4c(c23)C1=O [*10-NHCOC(CH3)3] as the compound, how does the IC50 [1] read?
A: 200 nM

Q: What about the IC50 [4] of the same compound?
A: 200 nM

Q: What about the IC50 [5] of the same compound?
A: 11000 nM

Q: With CC(=O)Nc1ccc2cc3cccc4c3c(c2c1)C(=O)N(CCN(C)C)C4=O [*10-NHCOCH3] as the compound, how does the IC50 [1] read?
A: 219 nM

Q: And the IC50 [4]?
A: 49 nM

Q: And the IC50 [5]?
A: 7790 nM
